Entries after “also recorded” stand apart in the source; their conditions may differ.
Columns and labels:
GPRC6A = system: GPRC6A; parameters: method as in PMID 15576628; conditions: chimera with goldfish 5.24 receptor and full length GPRC6A; ref [1]; cited from earlier work
[1] = system: non-tetracycline induced or parental HEK293 cells; assay: Inositol phosphate accumulation, parental or non-tetracycline-induced HEK293 cells; conditions: G protein-transfected parental HEK293 or non-tetracycline-induced cells; Fig 1B
MIN6 or βTC6 cells = assay: Insulin release, MIN6 or βTC6 cells (summary table); format: cell-based, murine; conditions: S1 Table
Method: MIN6 or βTC-6 cells were seeded in 24-well plates at 170,000 cells per well in DMEM (containing 4.5g/L glucose, 10 mM HEPES, 100 U/ml penicillin, 100 μg/ml streptomycin and 15% de-complemented FBS) and incubated at 37°C / 5% CO2 for 72 h. Cells were then washed with 500 μl PBS and incubated in 500 μl deprivation media (DMEM with zero glucose, 10 mM HEPES, 1 mM Na-pyruvate, 100 U/ml penicillin, 100 μg/ml streptomycin, 15% de-complemented FBS) for 2 h at 37°C. Media was aspirated and after washing with 500 μl PBS, cells were treated with 250 μl of Krebs buffer (250 mM NaCl, 5.9 mM KCl, 1.2 mM MgCl2, 1.3 mM CaCl2, 25 mM HEPES, 0.1% BSA (w/v), and 2 mM or 16.7 mM glucose; pH 7.4) in the presence or absence of test compound. After incubation for 2 h at 37°C, the assay was terminated by placing the plates on ice and supernatants were transferred to a 96-well plate in preparation for insulin ELISA (Alpco) following manufacturer’s instructions. The cell monolayer was washed twice with 500 μl of PBS and then lysed using 250 μl of 1 N NaOH prior to protein measurement by the method of Bradford (1976).

INS-1(832) cells = assay: Label-free cell impedance, INS-1(832) cells; format: cell-based, rat; conditions: S1 Table
Summary of the method: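 INS-1(832) cells seeded at 2 x 10^4/well, cultured 48 h in 11.1 mM glucose RPMI, then switched to EBSS containing 2.8 mM glucose for 2 h. Compound added in the same buffer; impedance captured and analysed as for HEK293 cells.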

mice = conditions: [21], cited from earlier work
From the text: (§1) Additional interest in GPRC6A has emerged due to several studies reporting that it mediates the metabolic and endocrine effects of the de-carboxylated form of the osteoblast-derived peptide, osteocalcin (OCN). […] By examining cell signalling events downstream of recombinantly expressed mouse GPRC6A and phenotypic assays in cell lines endogenously expressing the Gprc6a transcript, we confirmed that GPRC6A is a receptor for basic L-amino acids, but were unable to detect any effect of OCN variants, irrespective of peptide species or source. GPRC6A has emerged in recent years as an interesting target due to its putative role in med ...

[2] = system: immortalised cell lines (e.g. pancreatic β-cells); conditions: ref [12], cited from earlier work
From the text: as §1

mouse pancreatic islets = assay: Insulin release from mouse pancreatic islets; format: cell-based; conditions: OCN 0.03–100 ng/ml; both glucose concentrations; 90 min; n = 2; S3 Fig B
Method: Islets were collagenase-isolated from mice (10 x C57Bl/6; 12–13 weeks; Charles River) and incubated overnight in RPMI (with 10% FBS (v/v), 10 mM HEPES, 100 U/ml penicillin, 100 μg/ml streptomycin, sodium pyruvate and 10 mM glucose) at 37°C in 5% CO2. Islets were seeded into a 96-well plate (4 / well) in Kreb’s buffer containing 2.8 mM glucose and washed twice with the same buffer. 200 μl test drugs were added in Kreb’s buffer with the required concentration of glucose and incubated at 37°C in 5% CO2 for 90 min. The plate was centrifuged for 10 s at 200 g, supernatant recovered and insulin levels detected as described above. This protocol was approved by the IDRS (Institut de Recherches Servier) Institutional Animal Care and Use Committee.
Concentration-response data were analysed using a three or four parameter logistic function (Motulsky & Christopoulos, 2004) to generate estimates of agonist potency (LogEC50). Data for all HEK293 assays represent the mean ± SEM of at least three independent experiments (except cell impedance, n = 2). For GLP-1 release, the data represent mean ± SEM of three to five independent experiments (except for OCN, wash; n = 2). For insulin release assays, data represent the mean ± SEM of three independent experiments (except for islet studies; n = 2). Insulin release data were normalised to the response to vehicle in either low or high [glucose]. Statistical analysis for GLP-1 release data were performed by one-way ANOVA, followed by Sidak’s multiple comparisons test (treating wash / no wash datasets separately). Statistical analyses for insulin release data were performed by two-way ANOVA (with [glucose] and drug treatment as group variables), followed by Sidak’s multiple comparisons test. Where only high [glucose] groups were evaluated, statistical analysis was by one-way ANOVA followed by Sidak’s multiple comparisons test.

βTC-6 cells = conditions: GPRC6A-dependent; ref [12]; cited from earlier work
From the text: (§2) Given the range of OCN variants profiled, we propose that species and/or carboxylation status is unlikely to be a cause of the lack of activity in our assays. Other potential explanations are that the species of GPRC6A is critical or that HEK293 cells lack the necessary scaffolding and/or signalling proteins found in cells endogenously expressing GPRC6A. Unfortunately, human GPRC6A was not expressed at the cell surface in our cells, precluding a study of its pharmacology. However, we identified a range of immortalised murine entero-endocrine and pancreatic β-cell lines that express Gprc6a mRNA ...

pancreatic islets = conditions: GPRC6A-dependent; ref [31]; cited from earlier work
From the text: as §2

Molecule	agonist response of GPRC6A (GPRC6A)	inositol phosphate response in non-expressing cells [1]	Insulin release (summary) (MIN6 or βTC6 cells)	xCELLigence response (summary) (INS-1(832) cells)	β-cell proliferation, insulin release, insulin sensitivity, energy expenditure, testosterone synthesis (mice; mice, ref [20])	β-cell proliferation, insulin sensitivity, energy expenditure (mice; ref [12], [20])	insulin release ([2]; blocked by siRNA targeting Gprc6a, [22])	insulin secretion in vitro and ex vivo ([2]; [20], [21])	insulin secretion, OCN (mouse pancreatic islets)	ERK1/2 phosphorylation (βTC-6 cells)	insulin secretion (pancreatic islets)
NCCC[C@H](N)C(=O)O [L-ornithine]	mediates responses to L-amino acids	absent in non-tetracycline induced or parental HEK293 cells									
OCN: osteoblast-derived peptide, osteocalcin; variant not specified at the place (YLYQWLGAPVPYPDPLEPRREVCELNPDCDELADHIGFQEAYRRFYGPV; UniProt P02818 52-100, looked up)			Insulin release – response to L-aa. No response to OCN	xCELLigence – response to OCN	increase pancreatic β-cell proliferation, insulin release from pancreatic islets, insulin sensitivity and energy expenditure and testosterone synthesis in the gonads in mice	can increase pancreatic β-cell proliferation, insulin sensitivity and energy expenditure in vivo	OCN-mediated insulin and glucagon-like peptide (GLP)-1 release	promoting insulin secretion in vitro and ex vivo	no effect on insulin release; also recorded: failed to induce GSIS	engender ERK1/2 phosphorylation	increase insulin secretion from pancreatic islets

Reference: publication PMC4718634, “Murine GPRC6A Mediates Cellular Responses to L-Amino Acids, but Not Osteocalcin Variants” (PLoS ONE, 2016)
